From publication PMC9703800 (BMC Chemistry, 2022) come the findings set out here.

The target in test [1] is T1, Acetylcholinesterase (AChE) (Electrophorus electricus, UniProt O42275).
T1 construct: Type V-S, lyophilized powder, from electric eel; purchased Sigma-Aldrich; host or cells: electric eel (natural source)
In words: biochemical. In kind it is biochemical. The note with it: for IC50: isolated compounds, mean ± SD, three experiments, read-out: AChEI (μM), IC50; for inhibition at 40 µg/mL: read-out: AChE inhibition (%).

Test [2] addresses butyrylcholinesterase (BChE) (Equus caballus, UniProt P81908). In words: biochemical. The note with it: for IC50: isolated compounds, mean ± SD, three experiments, read-out: BChEI (μM), IC50; for inhibition at 40 µg/mL: read-out: BChE inhibition (%). In kind it is biochemical.
The target of a further test is T2, AChE (Electrophorus electricus, UniProt O42275).
T2 construct: Type V-S, lyophilized powder, from electric eel; purchased Sigma-Aldrich; host or cells: electric eel (natural source)
In words: Kinetic study of AChE inhibition (Lineweaver-Burk). The format is biochemical. As to the method: (§1) Kinetic studies of compound 2 were performed for the inhibition of ChEs based on the Ellman's method, using various concentrations of the inhibitor [14]. […]

The next test addresses BChE (Equus caballus, UniProt P81908). In words: Kinetic study of BChE inhibition (Lineweaver-Burk). In kind it is biochemical. As to the method:
as §1

The next test relates to PC12 cells. In words: Neuroprotectivity against H2O2-induced cell death in PC12 cells (MTT). The format is cell-based. As to conditions: 50 µM, positive control, H2O2 400 μM.

Entries after “also recorded” stand apart in the source; their conditions may differ.

T1 sequence (O42275 24-633): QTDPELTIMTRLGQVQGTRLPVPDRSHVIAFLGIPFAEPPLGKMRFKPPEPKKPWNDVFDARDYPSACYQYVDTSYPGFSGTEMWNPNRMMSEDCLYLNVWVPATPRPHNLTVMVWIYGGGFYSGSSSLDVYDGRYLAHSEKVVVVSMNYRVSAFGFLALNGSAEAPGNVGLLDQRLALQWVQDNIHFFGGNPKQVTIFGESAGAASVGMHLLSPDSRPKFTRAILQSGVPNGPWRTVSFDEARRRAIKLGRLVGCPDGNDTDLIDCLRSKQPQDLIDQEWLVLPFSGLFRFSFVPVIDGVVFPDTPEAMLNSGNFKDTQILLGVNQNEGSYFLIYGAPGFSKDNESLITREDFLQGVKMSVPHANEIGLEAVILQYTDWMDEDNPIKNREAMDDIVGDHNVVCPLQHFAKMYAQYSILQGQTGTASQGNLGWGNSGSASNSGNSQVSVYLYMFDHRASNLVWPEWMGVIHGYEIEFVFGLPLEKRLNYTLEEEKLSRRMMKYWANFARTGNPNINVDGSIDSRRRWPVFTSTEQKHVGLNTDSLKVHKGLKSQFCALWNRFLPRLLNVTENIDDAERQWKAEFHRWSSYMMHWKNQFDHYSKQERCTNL
T2 sequence (O42275 24-633): as above
Sequence of BChE (P81908 whole entry): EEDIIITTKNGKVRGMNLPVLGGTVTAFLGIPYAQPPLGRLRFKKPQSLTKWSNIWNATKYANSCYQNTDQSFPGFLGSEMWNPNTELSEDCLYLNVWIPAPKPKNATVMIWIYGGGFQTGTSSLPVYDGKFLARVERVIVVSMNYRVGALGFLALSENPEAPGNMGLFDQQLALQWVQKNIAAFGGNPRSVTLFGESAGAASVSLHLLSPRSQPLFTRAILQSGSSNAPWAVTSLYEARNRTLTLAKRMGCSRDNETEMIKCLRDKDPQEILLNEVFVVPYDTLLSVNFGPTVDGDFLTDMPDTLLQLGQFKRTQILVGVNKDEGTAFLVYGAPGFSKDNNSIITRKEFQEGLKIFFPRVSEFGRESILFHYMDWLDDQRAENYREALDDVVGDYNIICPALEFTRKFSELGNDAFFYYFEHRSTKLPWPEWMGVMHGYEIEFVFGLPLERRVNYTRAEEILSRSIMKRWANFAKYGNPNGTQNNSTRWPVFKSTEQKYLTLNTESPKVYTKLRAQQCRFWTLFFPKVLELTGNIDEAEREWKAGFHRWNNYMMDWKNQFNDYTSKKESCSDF
Sequence of butyrylcholinesterase (BChE) (P81908 whole entry): as above

Turning to `O=C(CCCCCCCCc1ccc(O)c(O)c1)c1c(O)cccc1O` [Compound 2, 1-(2,6-Dihydroxyphenyl)-9-(3,4-dihydroxyphenyl)nonan-1-one], the “AChE inhibitory activity (in words)” value in test [1] is on record as “potent inhibitors; also recorded: strong inhibitors”. The half-inhibitory concentration (IC50) (as a rule, the point on the concentration scale where inhibition reaches its midpoint) in test [1] amounted to 25 ± 0.95 µM; in test [2], 22.36 ± 0.03 µM. In test [2], the “BChE inhibitory activity (in words)” value is on record as “potent inhibitors; also recorded: strong inhibitors”. Further, the “Mechanism of AChE inhibition” value on AChE (Lineweaver-Burk plot) is “non-competitive inhibition; also recorded: non-competitively inhibited”. In addition, the Ki (usually the dissociation constant of the complex between target and ligand, obtained from inhibition or displacement) was determined as 25 µM on AChE (Lineweaver-Burk, inhibitor 0, 28, 56, 112 μM) and 22.4 µM at BChE (Lineweaver-Burk, inhibitor 0, 14, 28, 56 μM). On BChE (Lineweaver-Burk plot), the “Mechanism of BChE inhibition” value is reported as “non-competitive inhibition; also recorded: non-competitively inhibited”.
For `O=C(CCCCCCCCc1ccccc1)c1c(O)cccc1O` [Compound 1, 1-(2,6-Dihydroxyphenyl)-9-phenylnonan-1-one], in test [1], the “AChE inhibitory activity (in words)” value is given as “potent inhibitors; also recorded: strong inhibitors” and the 50% inhibitory concentration (IC50) turned out to be 67.4 ± 1.52 µM. Further, in test [2], the “BChE inhibitory activity (in words)” value is recorded as “potent inhibitors; also recorded: strong inhibitors” and the IC50 came to 27.16 ± 0.06 µM.
As to `O=c1c(O)c(-c2ccc(O)c(O)c2)oc2cc(O)cc(O)c12` [quercetin], the “Neuroprotection (%) against H2O2-induced cell death” value in the test with PC12 cells is given as 72.79%.
Consider `COc1cc(C(OC)C(C)C(C)Cc2ccc3c(c2)OCO3)ccc1O` (stereo not drawn) [Compound 6, 4-(4-(Benzo[d][1,3]dioxol-5-yl)-1-methoxy-2,3-dimethylbutyl)-2-methoxyphenol], for which the figures for the inhibition at 40 µg/mL in test [1] and in test [2] were 0% and 44%, respectively.
Consider `COc1cc([C@H]2O[C@@H](c3ccc(O)c(OC)c3)[C@H](C)[C@@H]2C)ccc1O` [Compound 4, 4,4'-((2R,3R,4S,5S)-3,4-Dimethyltetrahydrofuran-2,5-diyl)bis(2-methoxyphenol)], for which the inhibition (commonly the share of the control response that was lost under treatment) at 40 µg/mL was found to be 0% in test [1] and 45.8% in test [2].
In the same order, the values of `COc1cc(CC(C)C(C)Cc2ccc3c(c2)OCO3)ccc1O` (stereo not drawn) [Compound 5, 4-(4-(Benzo[d][1,3]dioxol-5-yl)-2,3-dimethylbutyl)-2-methoxyphenol] are 12.8% and 54.4%.
As for `COc1ccc(CC(C)C(C)Cc2ccc(O)c(O)c2)cc1OC` (stereo not drawn) [Compound 3, 4-(4-(3,4-Dimethoxyphenyl)-2,3-dimethylbutyl)benzene-1,2-diol], the figures for the inhibition at 40 µg/mL in test [1] and in test [2] were 0% and 47.4%, respectively.
